{
  "source": "patent US11779600B2",
  "about": "“Methods of treating or preventing alzheimer's disease and associated conditions” (CEDARS-SINAI MEDICAL CENTER, priority 2016, dated 2023)",
  "test_system": "ADtg mice",
  "assay": "Barnes maze behavioral test in AD mice",
  "type": "in vivo, mouse",
  "experimental": "ADtg mice (10 months old) received subcutaneous injections of GA [also known as Cop-1 and Copaxone®; 100 μg in phosphate-buffered saline (PBS)] or PBS alone (control group) twice a week for 1 week and then once a week for 8 weeks. For evaluation of innate immune infiltration to the brain by flow cytometry, 10-month-old ADtg mice received subcutaneous injections of GA (100 mg in PBS) or PBS alone twice a week for 1 week and then once a week for 3 weeks. At the end of the study, all mice were anaesthetized and then perfused with ice-cold PBS with 0.5 mM EDTA, after which their organs were collected and analyzed or fixed in 2.5% paraformaldehyde (Sigma-Aldrich), and cryoprotected with 30% sucrose for further histological analysis.\nCD115^+ monocytes from mice donors were isolated as previously reported (Koronyo et al., Brain: a journal of neurology 2015,138:2399-2422). […]\nThe Barnes maze is a spatial-learning task that allows subjects to use spatial cues to locate a means of escape from a mildly aversive environment (open space with light projection); mice are required to use spatial cues to find an escape location. The mice are assessed for their ability to learn the location of an escape box over the course of 9 days in the Barnes maze apparatus. […]",
  "data": [
    {"substance": "glatiramer acetate [GA]", "values": [
      {"measurement": "cognition", "value": "retained cognition"}
    ]}
  ]
}
